Reference: patent US10934255B2, “Nrf and HIF activators/HDAC inhibitors and therapeutic methods using the same” (THE BOARD OF TRUSTEES OF THE UNIVERSITY OF ILLINOIS, priority 2017, dated 2021)
Like-named read-outs stand apart in the source and are kept apart here.

How the values were obtained:
HDAC3/NcoR2 complex = HDAC3/NcoR2 complex (Homo sapiens, UniProt O15379); test: HDAC3 isoform selectivity assay; type: biochemical; conditions: Table 2 isoform selectivity; read-out: HDAC Inhibition (IC50 uM) isoform 3
HDAC3/NcoR2 complex, sequence (O15379 whole entry, canonical isoform): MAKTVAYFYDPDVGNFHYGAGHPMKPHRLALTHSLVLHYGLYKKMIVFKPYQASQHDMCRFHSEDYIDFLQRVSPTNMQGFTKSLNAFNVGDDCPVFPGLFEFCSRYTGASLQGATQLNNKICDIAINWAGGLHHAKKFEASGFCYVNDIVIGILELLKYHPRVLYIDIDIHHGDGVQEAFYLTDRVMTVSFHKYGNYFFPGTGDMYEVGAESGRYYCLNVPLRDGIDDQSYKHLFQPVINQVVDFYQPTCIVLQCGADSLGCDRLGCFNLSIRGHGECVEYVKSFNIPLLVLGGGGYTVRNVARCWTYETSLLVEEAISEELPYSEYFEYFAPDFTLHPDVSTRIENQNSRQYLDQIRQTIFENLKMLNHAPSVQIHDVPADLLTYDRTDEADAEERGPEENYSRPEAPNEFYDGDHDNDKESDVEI
HDAC3/NcoR2 complex, sequence (Q9Y618 395-489 partner limits assumed): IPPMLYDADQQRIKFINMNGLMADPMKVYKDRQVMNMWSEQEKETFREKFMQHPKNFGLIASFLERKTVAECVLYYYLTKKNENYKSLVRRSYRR
Description: (§1) The HDAC1, 2, 4, 5, 6, 7, 8, 9, 10, and 11 assays used isolated recombinant human protein; HDAC3/NcoR2 complex was used for the HDAC3 assay. […] Acetyl-Lys(trifluoroacetyl)-AMC substrate was used for HDAC4, 5, 7, and 9 assays. […] IC50 values were extracted by curve-fitting the dose/response slopes. Assays were performed in duplicate and IC50 values are an average of data from both experiments.

[1] = In vitro metabolic stability in human liver microsomes; type: in vitro ADME; conditions: human liver microsomes after 60 min at 10 uM
[2] = Blood brain barrier test: tissue concentration after iv injection; type: in vivo, Mouse; conditions: after 20 minutes
Description: Tests were conducted to determine the ability of a present compound to cross the blood brain barrier (BBB). In particular, Mouse 1 was injected iv with about 7.5 mg/kg of compound II-ING-6 in DMSO. Mouse 2—about 10 mg/kg. Blood, brain, and liver were collected after 20 minutes (Table 4).

[3] = tested on: TA98-S9, TA100-S9, TA1535-59, and TA1537-59; test: Ames test (genetic toxicity); parameters: species or system bacterium; conditions: concentrations of 0.6-100 μM
Description: Compound II-ING-6 was tested in genetic toxicity assays to assess the mutagenic potential of the compound. The Ames test was done with several strains of bacterium, such as: TA98-S9, TA100-S9, TA1535-59, and TA1537-59.

mouse neuronal N2a cells = test: MPP+ neurotoxicity in N2a cells (Presto-Blue); type: cell-based; conditions: 5 μM compound, MPP+ 100 μM, 24 h
Description: FIG. 2B contains bar graphs showing test compounds at 5 μM protected N2a cells against MPP+(100 μM) insult. Cell viability was measured at 24 h using Presto-Blue assay.
(§2) II-ING-6 and II-ING-66, were tested in neuronal cell lines subjected to H2O2 and MPP+-induced toxicity (Parkinson's disease model), and in a composite model of ischemia-reperfusion injury: oxygen glucose deprivation (OGD). In H2O2-induced neurotoxicity in human neuronal SH-SY5Y cells, neuroprotective properties of compounds II-ING-6 and II-ING-66 were assessed using 24 h pretreatment regimen (FIG. 2A). […] Neuroprotection against OGD is expected to be mediated by HIF-1α and Nrf2. In this assay, after pretreatment of cells 24 h prior to OGD insult, both compounds were neuroprotective (FIG. 3A).

[4] = tested on: human neuronal SH-SY5Y cells; test: H2O2-induced neurotoxicity in SH-SY5Y cells (MTT); type: cell-based; conditions: 24 h pretreatment, MTT at 24 h
Description: FIG. 2A contains bar graphs showing the concentration-dependent neuroprotection of SH-SY5Y cells from H2O2-induced toxicity. Cell viability was measured using the MTT assay at 24 h. […] (B) Test compounds at 5 μM protected N2a cells against MPP+ (100 μM) insult. Cell viability was measured at 24 h using Presto-Blue assay.
as §2

HDAC11 = molecular target: T1, HDAC11 (Homo sapiens, UniProt Q96DB2); test: HDAC11 isoform selectivity assay; type: biochemical; conditions: Table 2 isoform selectivity; read-out: HDAC Inhibition (IC50 uM) isoform 11
T1 sequence (Q96DB2 1-347): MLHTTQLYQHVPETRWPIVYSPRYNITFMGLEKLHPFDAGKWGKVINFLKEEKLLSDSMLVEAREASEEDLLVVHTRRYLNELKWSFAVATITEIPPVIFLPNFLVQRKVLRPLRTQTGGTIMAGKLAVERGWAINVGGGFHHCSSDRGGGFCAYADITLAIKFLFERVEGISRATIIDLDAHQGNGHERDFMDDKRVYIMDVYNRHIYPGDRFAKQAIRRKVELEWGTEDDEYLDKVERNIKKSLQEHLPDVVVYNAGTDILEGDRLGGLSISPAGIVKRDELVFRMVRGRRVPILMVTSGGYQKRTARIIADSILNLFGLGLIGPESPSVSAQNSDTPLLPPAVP
Description: as §1

SH-SY5Y cells = test: Oxygen glucose deprivation (OGD) in SH-SY5Y cells (MTT); type: cell-based, human; conditions: for Neuroprotection against OGD, pretreatment: pretreatment 24 h prior to OGD insult; for Neuroprotection against OGD, post-treatment: treatment after OGD
Description: FIG. 3A contains bar graphs showing a concentration dependence of II-ING-6 and II-ING-66 neuroprotection in SH-SY5Y cells subject to OGD: 24 h pretreatment.
FIG. 3B contains bar graphs showing concentration dependencies of II-ING-6 and II-ING-66 neuroprotection in SH-SY5Y cells subject to OGD: treatment post OGD. Cell viability was measured using the MTT assay 24 h post insult.
as §2

[5] = liver-on-a-chip assay, viability of HepaRG hepatocytes by MTT; type: cell-based; conditions: human, HepaRG hepatocytes in liver-on-a-chip, read-out: LC50
C57BL/6 mice = test: Behavioral screening in the SmartCube (SC) platform; type: in vivo; conditions: 50 mg/kg ip
Description: FIG. 4 contains the SC signature of II-ING-6 (50 mg/kg, ip) showing anxiolytic activity.
Another evidence that II-ING-6 is can cross the BBB was obtained from SC (Frontiers in Neuroscience 2011, 5 (103), p. 1-4) experiment. SC provides a sequence of challenges to mice and captures more than 2,000 features during a 1 hour testing session. These features are analyzed with computer algorithms and data mining approaches to automate the study of mice behavior and compared to a database of behavioral signatures obtained using a set of diverse reference compounds, including antidepressants, cognitive enhancers, antipsychotics, and anxiolytics. In this assay, C57BL/6 mice were injected with compound II-ING-6 at 50 mg/kg (ip).

[6] = tested on: panel of 43 cloned human and rodent CNS receptors, channels and transporters; test: PDSP selectivity panel; type: binding; conditions: 43 CNS receptors
Description: Compound II-ING-6 also was tested in a panel of 43 cloned human and rodent CNS receptors, channels and transporters using the NIMH sponsored Psychoactive Drug Screening Program (PDSP).

Nrf2 target genes = test: In vivo activation of Nrf2 pathway (RT-PCR of target genes); conditions: 3 month old male C57BL/6 mice, 25 mg/kg i.p.
Description: The expression of Nrf2 target genes was assessed in 3 month old male C57BL/6 mice administered with II-ING-66 (25 mg/kg i.p.). […] These in vivo data support the in vitro observations of HIF-1α and Nrf2 activation by phenylhydroxamate HDAC inhibitors (Gaisina et al, ACS Chem. Neurosci. 2017).

SMILES | IC50 (HDAC3/NcoR2 complex) [µM] | Microsomes stability (% remaining vsT0) [1] [% remaining vsT0] | Protection against MPP+ neurotoxicity (mouse neuronal N2a cells) | Neuroprotection from H2O2-induced toxicity [4] | IC50 (HDAC11) [µM] | Neuroprotection against OGD, pretreatment (SH-SY5Y cells) | Neuroprotection against OGD, post-treatment (SH-SY5Y cells) | CC50 at 48 h [5] [µM] | other results
O=C(NO)c1ccc(CN2CCc3ccc(Cl)cc32)cc1 [II-ING-6, 4-((6-Chloroindolin-1-yl)methyl)-N-hydroxybenzamide] | 4.34 | 88.6 | significant protection | Significant neuroprotection | 4.52 | neuroprotective | significant neuroprotection | > 500 | concentration at 20 min ([2]; brain, Mouse 1, iv 7.5 mg/kg in DMSO, read-out: Concentration, Brain): 1060 ng/g; concentration at 20 min ([2]; brain, Mouse 2, iv 10 mg/kg in DMSO, read-out: Concentration, Brain): 1760 ng/g; concentration at 20 min ([2]; liver, Mouse 1, iv 7.5 mg/kg in DMSO, read-out: Concentration, Liver): 501 ng/g; concentration at 20 min ([2]; liver, Mouse 2, iv 10 mg/kg in DMSO, read-out: Concentration, Liver): 1030 ng/g; concentration at 20 min ([2]; plasma, Mouse 1, iv 7.5 mg/kg in DMSO, read-out: Concentration, Plasma): 256 ng/g; concentration at 20 min ([2]; plasma, Mouse 2, iv 10 mg/kg in DMSO, read-out: Concentration, Plasma): 387 ng/g; Ames test result (mutagenic potential) [3]: Negative; SC signature (behavioral class) (C57BL/6 mice): anxiolytic effect; Activity in PDSP panel [6]: No significant activity
Cn1c(NCc2ccc(C(=O)NO)cc2)nc2ccccc21 [II-ING-13, N-Hydroxy-4-(((1-methyl-1H-benzo[d]imidazol-2-yl)amino)methyl)benzamide] | 3.51 |  |  |  | 2.11 |  |  |  | 
O=C(NO)c1ccc(CN2CCc3cc(Cl)ccc32)cc1 [II-ING-39, 4-((5-Chloroindolin-1-yl)methyl)-N-hydroxybenzamide] |  | 81.7 |  |  |  |  |  |  | 
O=C(NO)c1ccc(CN2CCc3ccc(F)cc32)cc1 [II-ING-41, 4-((6-Fluoroindolin-1-yl)methyl)-N-hydroxybenzamide] | 5.43 | 88.1 |  |  | 5.37 |  |  |  | 
O=C(NO)c1ccc(CN2C(=O)C(F)(F)c3ccccc32)cc1 [II-ING-66, 4-((3,3-Difluoro-2-oxoindolin-1-yl)methyl)-N-hydroxybenzamide] |  |  | significant protection | Significant neuroprotection |  | neuroprotective | significant neuroprotection only for compound II-ING-6 | > 500 | Hmox-1 expression in the liver (Nrf2 target genes): significantly upregulated; Hmox-1 expression in ventral midbrain and striatum (Nrf2 target genes): significant increases; NQO1 expression in ventral midbrain and striatum (Nrf2 target genes): significant increases
